Reference: patent US20040071718A1, “Local nasal immunotherapy for allergen-induced airway inflammation” (priority 2002, published 2004)

B1: FIP: fungal immunomodulatory protein isolated from Flammalina velutipes, amino acid sequence ID No. 3 (protein)
chain: SATSLTFQLAVLVKKIDFDYTPNWGRGTPSSYIDNLTFPKVLTDKKYSYRVVVNGSDLGVESNFAVTPSGGQTINFLQYNKGYGVADTKTIQVFVVIPDTGNSEEYIIAEWKKT
modifications: Flammalina velutipes

Legend:
Type in all cases: in vivo
Balb/c mice [1] = assay: Pulmonary function: airway hypersensitivity to methacholine (Penh, barometric plethysmograph) after LNIT; conditions: compared to NS; for Penh after methacholine challenge, early phase: Example 1, FIG. 5A, 30 min after rDp2 IT challenge; for Penh after methacholine challenge, late phase: Example 1, FIG. 5B, 24hrs after rDp2 IT challenge
Experimental: (§1) Mice were immunized by way of an intraperitoneal (IP) injection of 1 μg/0.1 mL rDp2 emulsified in 4.0 mg/0.062mL aluminum hydroxide Al(OH)3 (Whitehall Lab Ltd. Punchbowl, NSW, Australia) on day 0 and day 7. Following immunization, local nasal immunotherapy (LNIT) was conducted daily from day 14 to day 35 with Dp2 28-40, Dp2 28-40A, FIP alone or FIP mixed with either Dp2 28-40 or Dp2 28-40A (FIP, 50 μg/mouse/day; Dp2 peptide, 1 μg/20 μL) in PBS with 10% glycerol. Normal saline (NS) and irrelevant allergen Bt were used as a negative control. […] On day 28, mice were lightly anesthetized with an IP injection of 60 mg/kg of sodium pentobarbital (Sigma Chemical Co., St Louis, Mo., U.S.A.) and inoculated intratracheally (IT) with 1 μg/50 μL of rDp 2 on day 28 and day 35. Two days subsequent to the second IT inoculation, the mice were sacrificed following the assessment of their pulmonary function (FIG. 1).
Each mouse was placed inside a barometric plethysmograph (Buxco Electronics, Troy, N.Y.). The plethysmograph has two chambers: one is the main or animal chamber (ID 7.5 cm and 5.5 cm height) and the other is the reference chamber (ID 7.5 cm and 3.5 cm height). A differential pressure transducer was employed to detect the pressure difference between the two chambers. The pressure signal was amplified, digitized via an A/D convert card, and sent to a computer with a BioSystem XA program (Buxco, Electronics, Troy, N.Y.), which sampled and calculated the desired respiratory parameters. These parameters were enhanced pause (Penh), tidal volume, breathing frequency, peak inspiratory flow, peak expiratory flow, end-inspiratory pause, and end-expiratory pause.
Aerosol was generated by placing 5 mL of saline or methacholine (Sigma, 1.56 to 25.00 mg/mL) solution in the cup of an ultrasonic nebulizer (DeVilbiss, Somerset, Pa.). It was delivered via a connecting tube and a three-way connector to the animal chamber of the plethysmograph (Hamelmann E, et al. Am J Respir Crit Care Med. 1997;156:766-75). The median size of the aerosol was approximately 3 μm and the range of the sizes was from 1 to 5 μm, according to the manufacturers information. The aerosol usually filled the chamber within 15-20 sec. At first, each mouse inhaled saline aerosol for 3 min. Then the respiratory parameters were measured for 3 min. Then, inhalation of the saline aerosol was replaced by inhalation of the aerosol of methacholine solution for 3 min. In both cases, the aerosol in the chamber was cleared immediately after the exposure. Respiratory parameters were then measured for 3 min following the inhalation of methacholine. A dose-response curve for methacholine was calculated starting from a low dose of 0.031 mg/dL and moving to a higher dose of 25 mg/dL. There was a 15 min interval between exposures. The percentage changes of Penh obtained from each dose of mechacholine were accumulated area under the curve and the values were calculated as means±SEM. Differences in parameters among groups were analyzed by variance.

Balb/c mice [2] = assay: Free radical production in BALF (chemiluminescence) after LNIT; conditions: FIG. 4, chemiluminescence, expressed as counts/10 seconds, compared to NS control
Experimental: as §1
Using chemiluminescence, free radicals in the BAL fluid were measured immediately after each experiment. The total amounts of free radical were detected and expressed as counts/10 seconds.

Balb/c mice [3] = assay: Dp2 specific IgG1, IgG2a and IgE in sera (ELISA) after LNIT; conditions: for Dp2 specific IgG1 production in the sera: Example 1, FIG. 2A; for Dp2 specific IgG1 production in the sera / Dp2 specific IgG2a production in the sera / Dp2 specific IgE production in the sera: compared with NS group; for Dp2 specific IgG2a production in the sera: Example 1, FIG. 2B; for Dp2 specific IgE production in the sera: Example 1, FIG. 2C
Experimental: Male Balb/c mice were obtained from the National Laboratory Breeding Research Center in Taiwan and were raised in a specific pathogen-free environment. The mice used were between six and eight weeks of age. Groups of six mice were caged separately according to their treatment. Recombinant Dermatophoides pteronyssinus group 2 (rDp2) was prepared as previously described(Tsai J J, et al. Int Arch Allergy Immunol 2000;121:205-10). Dp2 28-40 and Dp2 28-40A were obtained from Dr. Jonathan Lamb (Respiratory Medicine Unit, Edinburgh University, Medical School, Edinburgh, UK) (Verhoef A, and Lamb J R. J Immunol 2000;164:6034-6040). FIP was obtained from Dr. Ko Jiunn-Liang (Institute of Toxicology, Chung Shan Medical University, Taichung, R O C) (J L Ko, et al. Eur. J. Biochem. 1995;228:244-249).
as §1
Blood was obtained from the retro-orbital venous plexus at the commencement and end of the experimental program. Serum IgE, IgG1 and IgG2a titers of anti-Dp2 antibodies were determined using an enzyme-linked immunosorbent assay (ELISA) technique. Microtiter plates (Nunc Lab, Ill., U.S.A.) were coated with 100 μL Dp2 overnight at a concentration of 0.5 μg/mL and left in a 4° C. refrigerator. Microtiter-plate nonspecific binding sites were blocked with 3% BSA in PBS for two hours at room temperature. Plates were washed with PBS-Tween-20 (PBST) three times and stored at −70° C. prior to subsequent use. Subsequent to the addition of a 1:5 dilution for IgE, a 1:100 dilution for IgG1 and a 1:5 dilution for IgG2a of mice serum, plates were incubated at 4° C. overnight, and then washed three times before the antibody (Horse radish peroxidase-conjugated goat anti-mouse IgE and IgG2a Ab 1:800, IgG1 Ab 1:2,000 Southern Biotech Assoc, Inc, Birmingham, Ala., U.S.A.) was added. Following a one-hour incubation at 37° C. and three washes with PBST, the enzyme substrate (2,2″-Azino-bis(3-ethylbenzothiazolin-6-sulfonic acid diammonium salt; Bio-Rad, USA) was added. The reaction was stopped using 50 μL 4N H2SO4 after the reaction had been allowed to continue for 15 minutes, following which the optical density was measured at 450nm using a multiscan spectrophotometer (model A-5682, SLT Lab Instruments, Salzburg, Austria). Results were expressed as ELISA units (EU), one EU being defined as the reciprocal value of the serum dilution that elicited an optical density of 1.0. Such a value was selected so as to always lie within the linear component of the dilution curve. To assure reproducibility, a known serum was included with each test as a standard.

Molecule | Penh after methacholine challenge, early phase (Balb/c mice [1]) | Penh after methacholine challenge, late phase (Balb/c mice [1]) | free radical production in the BAL fluid (Balb/c mice [2]) | Dp2 specific IgG1 production in the sera (Balb/c mice [3]) | Dp2 specific IgG2a production in the sera (Balb/c mice [3]) | Dp2 specific IgE production in the sera (Balb/c mice [3]) | penh, early phase (Balb/c mice [1]; Example 2, FIG. 8A, 30 min after rDp2 intratracheal challenge) | penh, late phase (Balb/c mice [1]; Example 2, FIG. 8B, 24 hr) | Dp2 specific IgG1 production in sera (Balb/c mice [3]; Example 2, FIG. 7A, compared with NS) | Dp2 specific IgG2a production in sera (Balb/c mice [3]; Example 2, FIG. 7B, compared with NS) | Dp2 specific IgE production in sera (Balb/c mice [3]; Example 2, FIG. 7C, compared with NS)
Dp2 28-40: Dermatophoides pteronyssinus group 2 (Dp2) epitope peptide, residues 28-40, amino acid sequence ID No. 1 (IIHRGKPFQLEAV; listed as Dermatophoides pteronyssinus) | significantly decreased | significantly decreased | significantly inhibited | significantly reduced | increased | reduction of IgE |  |  |  |  | 
Dp2 28-40A: altered TCR ligand of Dp2 28-40, residues at positions 34 and 36 substituted by alanine; amino acid sequence ID No. 2 (IIHRGKAFALEAV; listed as Dermatophoides pteronyssinus) | significantly decreased | significantly decreased |  | significantly reduced | increased | reduction of IgE was observed only in the group of Dp2 28-40 |  |  |  |  | 
B1 |  |  |  |  |  |  | significantly decreased | did not reach a statistically significant level | significantly reduced | significantly increased | significantly reduced
